# In patent EP1534672B1, “RETINOL DERIVATIVES, THEIR USE IN THE TREATMENT OF CANCER AND FOR POTENTIATING THE EFFICACY OF OTHER CYTOTOXIC AGENTS” (priority 2002, dated 2004):
# Several values for one entry are separate records, joined by “and”; a condition that tells them apart may be missing. Equal entries are not always repeated. Structures can show the parent of a compound that is named as a salt. Where two headings read alike, the source gives them in different places. Marks after values point to notes of the source that are not given here.
# System: Human Breast Adenocarcinoma Cell Line MDA-MB-231
# Test: Drug cytotoxicity testing (viable cell count, trypan blue exclusion, cell growth inhibition)
# Format: cell-based
# Conditions: for IC50: calculated from three concentrations, read-out: IC50 mol/L (a); for cell growth inhibition reached on increase of the concentration, in (B): sodium salt, range 10^-9 to 10^-7 M, dilution in normal saline (B)
# Description: MDA-MB-231 cells were propagated in MEM culture medium with 2 mM L-glutamine, 10% heat-inactivated fetal bovine serum (FBS) and antibiotics. DU 145 cells were cultured in MEM culture medium containing 2 mM L-glutamine, 1 mM sodium pyruvate, 10% FBS and antibiotics. SKOV-3 cells were cultured in McCoy's 5A culture medium, supplemented with 1,5 mM L-glutamine, 10% FBS and antibiotics. A549 cells were cultured in Ham's F-12 culture medium with 1 mM L-glutamine, 10% FBS and antibiotics. All media and supplements were purchased from Sigma-Aldrich (St.Louis, MO, USA). Cell propagation of all lines was carried out in Falcon™ 25 cm^2 cultivation flasks (Becton Dickinson Labware).
# Drug cytotoxicity testing was carried out with using Falcon™ 96-well cultivation plates for adherent cells (Becton Dickinson Labware). These plates were seeded by cells either at 12 × 10^3 MDA-MB-231 cells/well, or at 12 × 10^3 DU 145 cells/well, or at 14 × 10^3 SKOV-3 cells/well, or at 10 × 10^3 A549 cells/well in a volume of 200 µL/well.
# The cell cultures in cultivation plates were allowed to adhere for 24 hour of incubation. On day 1 after cell seeding, 2 µL solutions of the drugs to be tested in medium with 5% FBS was added to the cultures. In the control cultures, 2 µL of medium with 5% FBS was added as solvent control. The cells were incubated for 2 consecutive days. At the end of the incubation period adherent cells were detached by trypsinization and the number of viable cells was counted using trypan blue exclusion test and a hemocytometer. All data were derived from an average of three determinations each in six replicates. The results were expressed as mean cell number ± SE and the differences between control and test series evaluated by means of Student's t-test. The drug cytotoxicity was evaluated based on the extent of cell growth inhibition. The cell growth inhibition of the tested drugs was calculated as follows: Cell growth inhibition,% = (Control-TestSeries)/(Control) × 100 [formula]
# In the case of comparative evaluation of cytotoxicity of the inventive compounds themselves and the formulation related to consecutive dilutions of their initial solutions before adding to the cultures, 2 µL solutions of the drugs to be tested in medium with 5% FBS, in normal saline and in saline with 2,3 mM CaCl2 were added to the cultures. In control cultures, 2 µL of medium with 5% FBS, normal saline and saline with 2,3 mM CaCl2 were added as solvent controls (negative controls). […] Therefore an average of negative controls was calculated. […] Therefore an average of positive controls was calculated (for each antibiotic).
# [1] = cytotoxic drug alone 10^-7 mol/L, average of positive controls in medium with 5% FBS, normal saline and saline with 2,3 mM CaCl2, hydrochloride
# [2] = cytotoxic drug alone 10^-8 mol/L, average of positive controls in medium with 5% FBS, normal saline and saline with 2,3 mM CaCl2, hydrochloride
# [3] = cytotoxic drug alone 10^-9 mol/L, average of positive controls in medium with 5% FBS, normal saline and saline with 2,3 mM CaCl2, hydrochloride
# [4] = Homo sapiens, MDA-MB-231, 48 h, compound alone, final concentration 10^-7 mol/L, working solutions in MEM with 5% FBS, two days, read-out: cell growth inhibition
# [5] = Homo sapiens, MDA-MB-231, 48 h, compound alone, final concentration 10^-8 mol/L, working solutions in MEM with 5% FBS, two days, read-out: cell growth inhibition
# [6] = Homo sapiens, MDA-MB-231, 48 h, compound alone, final concentration 10^-9 mol/L, working solutions in MEM with 5% FBS, two days, read-out: cell growth inhibition
# [7] = compound alone, final concentration 10^-7 mol/L, working solutions in MEM with 5% FBS, two days
# [8] = compound alone, final concentration 10^-8 mol/L, working solutions in MEM with 5% FBS, two days
# [9] = compound alone, final concentration 10^-9 mol/L, working solutions in MEM with 5% FBS, two days
# [10] = Homo sapiens, MDA-MB-231, compound alone 10^-7 mol/L, in B (normal saline), read-out: cell growth inhibition
# [11] = Homo sapiens, MDA-MB-231, compound alone 10^-7 mol/L, read-out: Cell growth inhibition in A compared to that in B was increased by
# [12] = Homo sapiens, MDA-MB-231, compound alone 10^-8 mol/L, in A (saline with […] CaCl2), read-out: cell growth inhibition
# [13] = Homo sapiens, MDA-MB-231, compound alone 10^-8 mol/L, in B (normal saline), read-out: cell growth inhibition
# [14] = Homo sapiens, MDA-MB-231, compound alone 10^-8 mol/L, read-out: Cell growth inhibition in A compared to that in B was increased by
# [15] = Homo sapiens, MDA-MB-231, compound alone 10^-9 mol/L, in A (saline with […] CaCl2), read-out: cell growth inhibition
# [16] = Homo sapiens, MDA-MB-231, compound alone 10^-9 mol/L, in B (normal saline), read-out: cell growth inhibition
# [17] = Homo sapiens, MDA-MB-231, compound alone 10^-9 mol/L, read-out: Cell growth inhibition in A compared to that in B was increased by
# [18] = compound alone 10^-7 mol/L, in B (normal saline)
# [19] = compound alone 10^-8 mol/L, in B (normal saline)
# [20] = compound alone 10^-9 mol/L, in B (normal saline)
smiles,measurement,setting,value
"COc1cccc2c1C(=O)c1c(O)c3c(c(O)c1C2=O)C[C@@](O)(C(=O)CO)C[C@@H]3O[C@H]1C[C@H](N)[C@H](O)[C@H](C)O1 [Doxorubicin, (8S,10S)-10-[(3-amino-2,3,6-trideoxy-α-L-lyxo-hexopyranosyl)oxy]-8-glycolyl-7,8,9,10-tetrahydro-6,8,11-trihydroxy-1-methoxy-5,12-naphtacenedione hydrochloride, reference compound]",IC50,"Homo sapiens, MDA-MB-231, as concentration of cytotoxic drug, alone or in formulation at molar ratio 1:6, medium with 5% FBS",76 nM
same,inhibition at 0.1 µM,"Homo sapiens, MDA-MB-231, cytotoxic drug 10^-7 mol/L (100 nM), alone or in formulation at molar ratio 1:6, working solutions in medium with 5% FBS, read-out: Cell Growth Inhibition, %",53.6%
same,inhibition at 0.01 µM,"Homo sapiens, MDA-MB-231, cytotoxic drug 10^-8 mol/L, alone or in formulation at molar ratio 1:6, working solutions in medium with 5% FBS, read-out: Cell Growth Inhibition, %",26.4%
same,inhibition at 0.001 µM,"Homo sapiens, MDA-MB-231, cytotoxic drug 10^-9 mol/L, alone or in formulation at molar ratio 1:6, working solutions in medium with 5% FBS, read-out: Cell Growth Inhibition, %",13.8%
same,inhibition at 0.1 µM,"Homo sapiens, MDA-MB-231, cytotoxic drug alone 10^-7 mol/L, average of positive controls in medium with 5% FBS, normal saline and saline with 2,3 mM CaCl2, read-out: Cell Growth Inhibition, %",55.4%
same,inhibition at 0.01 µM,"Homo sapiens, MDA-MB-231, cytotoxic drug alone 10^-8 mol/L, average of positive controls in medium with 5% FBS, normal saline and saline with 2,3 mM CaCl2, read-out: Cell Growth Inhibition, %",29.4%
same,inhibition at 0.001 µM,"Homo sapiens, MDA-MB-231, cytotoxic drug alone 10^-9 mol/L, average of positive controls in medium with 5% FBS, normal saline and saline with 2,3 mM CaCl2, read-out: Cell Growth Inhibition, %",19.4%
same,IC50,"Homo sapiens, MDA-MB-231, cytotoxic drug alone, average of positive controls",62 nM
same,"Tumor Cell Number, × 10^3","cytotoxic drug 10^-7 mol/L (100 nM), alone or in formulation at molar ratio 1:6, working solutions in medium with 5% FBS, hydrochloride",26.2 ± 1.29 × 10^3
same,"Cell Growth Inhibition, %","cytotoxic drug 10^-7 mol/L (100 nM), alone or in formulation at molar ratio 1:6, working solutions in medium with 5% FBS, hydrochloride, 0.1 µM",53.0* %
same,"Tumor Cell Number, × 10^3","cytotoxic drug 10^-7 mol/L (100 nM), alone or in formulation at molar ratio 1:6, working solutions in medium with 5% FBS, listed as doxorubicin, hydrochloride",23.6 ± 1.02 × 10^3
same,"Tumor Cell Number, × 10^3","cytotoxic drug 10^-8 mol/L, alone or in formulation at molar ratio 1:6, working solutions in medium with 5% FBS",41.0 ± 1.50 × 10^3
same,"Tumor Cell Number, × 10^3","cytotoxic drug 10^-9 mol/L, alone or in formulation at molar ratio 1:6, working solutions in medium with 5% FBS",48.0 ± 1.85 × 10^3
same,"Cell Growth Inhibition, %",[1],55.3* %
same,"Tumor Cell Number, × 10^3",[1],25.5±0.71 × 10^3 and 25.2±1.56 × 10^3
same,"Cell Growth Inhibition, %",[2],27.3 * %
same,"Tumor Cell Number, × 10^3",[2],40.4±1.65 × 10^3 and 41.0±0.96 × 10^3
same,"Cell Growth Inhibition, %",[3],19.1* %
same,"Tumor Cell Number, × 10^3",[3],46.1±2.07 × 10^3 and 45.6±1.38 × 10^3
same,IC50,"cytotoxic drug alone, average of positive controls, hydrochloride",64 nM
"CCOC(=O)[C@H](CS(=O)(=O)O)NC(=O)/C=C(C)/C=C/C=C(C)/C=C/C1=C(C)CCCC1(C)C [compound I-1b, N-(all-trans-retlnoyl)-L-cysteic acid ethyl ester]",inhibition at 0.1 µM,[4],46.7%
same,inhibition at 0.01 µM,[5],44.2%
same,inhibition at 0.001 µM,[6],39.2%
same,number of viable cells,[7],30.5 ± 1.82 × 10^3
same,number of viable cells,[8],31.9 ± 2.16 × 10^3
same,number of viable cells,[9],34.8 ± 2.41 × 10^3
"CC1=C(/C=C/C(C)=C/C=C/C(C)=C/C(=O)N[C@@H](CS(=O)(=O)O)C(=O)OC(C)C)C(C)(C)CCC1 [compound I-1c, N-(all-trans-retinoyl)-Lwcysteic acid isopropyl ester]",inhibition at 0.01 µM,[5],46.9%
same,inhibition at 0.001 µM,[6],40.6%
same,number of viable cells,[7],28.9 ± 1.52 × 10^3
same,number of viable cells,[8],30.4 ± 1.79 × 10^3
same,number of viable cells,[9],34.0 ± 2.13 × 10^3
"CCCOC(=O)[C@H](CS(=O)(=O)O)NC(=O)/C=C(C)/C=C/C=C(C)/C=C/C1=C(C)CCCC1(C)C [compound I-1d, N-(all-trans-retinoyl)-L-cysteic acid propyl ester]",inhibition at 0.1 µM,[4],54.8%
same,inhibition at 0.01 µM,[5],50.7%
same,inhibition at 0.001 µM,[6],45.2%
same,number of viable cells,[7],24.1 ± 1.46 × 10^3
same,number of viable cells,[8],26.3 ± 1.67 × 10^3
same,number of viable cells,[9],29.2 ± 1.89 × 10^3
"CCCCOC(=O)[C@H](CS(=O)(=O)O)NC(=O)/C=C(C)/C=C/C=C(C)/C=C/C1=C(C)CCCC1(C)C [compound I-1e, N-(all-trans-retinoyl)-L-cysteic acid butyl ester]",inhibition at 0.1 µM,[4],53.5%
same,inhibition at 0.01 µM,[5],49.2%
same,inhibition at 0.001 µM,[6],44.7%
same,number of viable cells,[7],24.8 ± 1.34 × 10^3
same,number of viable cells,[8],27.1 ± 1.75 × 10^3
same,number of viable cells,[9],29.5 ± 2.18 × 10^3
"CNC(=O)[C@H](CS(=O)(=O)O)NC(=O)/C=C(C)/C=C/C=C(C)/C=C/C1=C(C)CCCC1(C)C [compound I-1g, N-(all-trans-retinoyl)-L-cysteic acid methylamide]",inhibition at 0.01 µM,[5],35.9%
same,inhibition at 0.001 µM,[6],27.8%
same,inhibition at 0.1 µM,[10],22.8%
same,inhibition at 0.1 µM,[11],26.5%
same,inhibition at 0.01 µM,[12],36.7%
same,inhibition at 0.01 µM,[13],14.2%
same,inhibition at 0.01 µM,[14],26.3%
same,inhibition at 0.001 µM,[15],28.5%
same,inhibition at 0.001 µM,[16],4.2%
same,inhibition at 0.001 µM,[17],25.4%
same,number of viable cells,[18],43.1 ± 2.03 × 10^3
same,number of viable cells,[19],47.9 ± 2.86 × 10^3
same,number of viable cells,[20],53.5 ± 3.21 × 10^3
same,cell growth inhibition reached when increasing the concentration,"compound alone (sodium salt), concentration range 10^-9 to 10^-7 M",~43%
same,number of viable cells,[7],32.1 ± 1.72 × 10^3
same,number of viable cells,[8],36.2 ± 1.95 × 10^3
same,number of viable cells,[9],40.8 ± 2.14 × 10^3
same,"cell growth inhibition reached on increase of the concentration, in (B)",,~23%
"CC1=C(/C=C/C(C)=C/C=C/C(C)=C\C(=O)N[C@@H](CS(=O)(=O)O)C(=O)O)C(C)(C)CCC1 [compound II-1, N-(13-cis-Retinoyl)-L-cysteic acid]",inhibition at 0.1 µM,"Homo sapiens, MDA-MB-231, compound alone 10^-7 mol/L, in A (saline with […] CaCl2), read-out: cell growth inhibition",42.7%
same,inhibition at 0.1 µM,[10],32.2%
same,inhibition at 0.1 µM,[11],15.5%
same,inhibition at 0.01 µM,[12],41.3%
same,inhibition at 0.01 µM,[13],30.6%
same,inhibition at 0.01 µM,[14],15.4%
same,inhibition at 0.001 µM,[15],37.4%
same,inhibition at 0.001 µM,[16],25.5%
same,inhibition at 0.001 µM,[17],16%
same,number of viable cells,[18],38.6 ± 1.25 × 10^3
same,number of viable cells,[19],39.5 ± 1.46 × 10^3
same,number of viable cells,[20],42.4 ± 1.63 × 10^3
same,"cell growth inhibition reached on increase of the concentration, in (B)",,~32%
"CCOC(=O)[C@H](CS(=O)(=O)O)NC(=O)\C=C(C)/C=C/C=C(C)/C=C/C1=C(C)CCCC1(C)C [compound II-1b, N-(13-cis-retinoyl)-L-cysteic acid ethyl ester]",inhibition at 0.1 µM,[4],49.1%
same,inhibition at 0.01 µM,[5],46.3%
same,inhibition at 0.001 µM,[6],41.4%
same,number of viable cells,[7],29.8 ± 1.70 × 10^3
same,number of viable cells,[8],31.4 ± 1.94 × 10^3
same,number of viable cells,[9],34.3 ± 1.88 × 10^3
